Laboratory results taken from US12570638B2, “Fused imidazole derivatives as AHR antagonists” (Sail Biomedicines, Inc., priority 2020, dated 2026).

Columns and labels:
[1] = molecular target: T1, AHR (Homo sapiens, UniProt P35869); assay: DRE-Luciferase Reporter Assay (HepG2 AhR-Lucia reporter cells); assay type: cell-based; conditions: luciferase activity with AHR activating ligand at EC50, read-out: HepG2-Luc IC50
T1 construct: other cell line with a DRE-luciferase reporter stably transfected; endogenous in cells; host or cells: Human HepG2 liver carcinoma AhR-Lucia reporter cells
T1 sequence (P35869 11-848): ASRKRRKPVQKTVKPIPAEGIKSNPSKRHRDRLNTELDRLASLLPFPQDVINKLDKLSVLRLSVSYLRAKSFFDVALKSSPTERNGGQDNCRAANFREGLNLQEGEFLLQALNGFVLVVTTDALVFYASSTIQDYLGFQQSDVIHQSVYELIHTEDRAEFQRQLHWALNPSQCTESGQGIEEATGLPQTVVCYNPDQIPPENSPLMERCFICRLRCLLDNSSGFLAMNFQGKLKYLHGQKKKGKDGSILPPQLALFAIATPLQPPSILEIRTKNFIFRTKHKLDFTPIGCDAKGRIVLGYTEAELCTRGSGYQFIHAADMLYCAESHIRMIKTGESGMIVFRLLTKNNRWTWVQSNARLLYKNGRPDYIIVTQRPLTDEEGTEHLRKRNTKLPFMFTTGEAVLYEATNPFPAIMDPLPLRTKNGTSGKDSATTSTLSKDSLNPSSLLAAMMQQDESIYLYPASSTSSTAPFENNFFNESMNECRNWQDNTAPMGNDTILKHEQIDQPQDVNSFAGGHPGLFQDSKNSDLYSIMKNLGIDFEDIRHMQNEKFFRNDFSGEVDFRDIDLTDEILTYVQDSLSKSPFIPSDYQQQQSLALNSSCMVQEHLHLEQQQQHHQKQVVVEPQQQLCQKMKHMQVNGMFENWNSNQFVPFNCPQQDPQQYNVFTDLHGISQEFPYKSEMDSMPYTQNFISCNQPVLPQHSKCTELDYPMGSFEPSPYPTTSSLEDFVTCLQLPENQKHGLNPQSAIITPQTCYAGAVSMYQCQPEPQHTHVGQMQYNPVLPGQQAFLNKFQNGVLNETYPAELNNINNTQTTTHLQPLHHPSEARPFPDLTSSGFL
Description: AHR binds to Dioxin Responsive Elements (DRE) upstream of genes that it activates. One measure of AHR activity is activation of a reporter gene, such as luciferase, downstream of one or multiple DRE elements. Luciferase activity will reflect activation and inhibition of AHR in the cells expressing his reporter. 20000 Human HepG2 liver carcinoma—AhR-Lucia reporter cells or Human HT29 colon adenocarcinoma—AhR reporter cells or other cell line with a DRE-luciferase reporter stably transfected were plated in Eagle's Minimal Essential Medium, 10% heat-inactivated FBS, 1× non-essential amino acids Pen-Strep (10,000 U/mL) and Normocin (100 ug/mL) in plates (96-well, 384-well or other plates) and incubated overnight at 37° C. in a CO2 incubator and treated with and without AhR antagonists at a log dilution starting at 100 uM.
After 1 hr that cells were plated an AHR activating ligand, such as TCDD, kynurenine, ITE (2-(1H-indole-3-ylcarbonyl)-4-thiazolecarboxylic methyl ester), VAF347, BNF (beta-naphthoflavone), FICZ (6-formylindolo(3,2-b) carbazole) or other AHR ligands at their specific EC50 concentration, were added to the cells with or without AHR antagonist.
Cells were incubated for 24 or 48 hours or another time point and then, supernatant was analyzed for determination of luciferase activity as a read-out of the AHR activation or inhibition. Luciferase was measured with the commercial kit QUANTI-Luc™ assay solution kit from Invivogen following the manufacturer's instructions.
The level of luciferase with only agonist ligand added was the maximum signal while the luciferase with […] was the minimum signal. IC50 values were determined as the concentration which inhibits half of the luciferase activity.

[2] = Plasma Protein Binding Determination with Ultracentrifugation Method; assay type: in vitro ADME; conditions: human plasma, read-out: Human plasma protein binding (% bound)
Experimental: The frozen plasma (stored at −80° C.) was thawed in a 37° C. water bath, followed by centrifugation at 3,220 g for 10 minutes to remove clots. The supernatant was removed into a new tube as the spun plasma. The spun plasma was pre-warmed in a 37° C. water bath for 10 minutes. The stock solutions of test compounds were diluted to 200 μM in DMSO, and then spiked into the plasma. Duplicate samples were prepared. The final concentration of compound was 1.0 μM. The final concentration of organic solvent was 0.5%. Warfarin was used as positive control in the assay. 1.0 mL of the spiked plasma was transferred to a new balance ultracentrifuge tube. Samples were incubated at 37° C., 5% CO2 for 30 minutes. After incubation, the balance ultracentrifuge tubes were centrifuged at 600,000 g for 5.5 hours at 37° C. […]
Data Analysis: All calculations were carried out using Microsoft Excel. The concentrations of test compound in plasma samples and post-ultracentrifugation plasma was determined from peak areas. The percentages of test compound bound was calculated as follows: […]

Row | IC50 [1] | fraction unbound at 30 min, 1 μM [2] | Structure (SMILES)
1 | 100 to 500 nM |  | Cn1nccc1C(=O)Nc1ccc2nc(-c3ccccc3C(F)(F)F)[nH]c2c1 [A, 1-methyl-N-(2-(2-(trifluoromethyl)phenyl)-1H-benzo[d]imidazol-6-yl)-1H-pyrazole-5-carboxamide]
2 | < 100 nM | < 0.25 | Cn1ncnc1C(=O)Nc1ccc2nc(-c3ccccc3C(F)(F)F)[nH]c2c1 [Compound H, 1-methyl-N-(2-(2-(trifluoromethyl)phenyl)-1H-benzo[d]imidazol-6-yl)-1H-1,2,4-triazole-5-carboxamide]
